The subject of data set [1] is Cryptococcus neoformans. The data set can be described thus: Broth microdilution MIC and MFC on planktonic cells. It counts as cell-based. As to the method:
Cryptococcus neoformans ATCC 34872 (serotype A), C. neoformans ATCC 66031 (serotype D), and four C. neoformans human isolates (Table 1) belonging to the microbial collection of the Laboratório de Biologia Molecular de Microrganismos of Universidade Estadual de Londrina (UEL), Londrina, Paraná, Brazil, were included in the present study. Yeasts were cultivated in Sabouraud dextrose (SD) agar at 37°C for 48 h and stored at 4°C. For the experiments, five colonies were transferred to SD broth and incubated under the same conditions. Cells were then centrifuged (10,000 × g for 1 min) and resuspended in 0.85% NaCl solution (saline) to achieve turbidity equivalent to 0.5 McFarland standard using the DensiCHEK™ PLUS colorimeter (bioMérieux), which corresponds to approximately 1.0–2.0 × 10^6 colony forming units (CFUs)/mL (standard fungal suspension). The fungal suspension was diluted in a culture medium to achieve the inoculum used in each assay. The study protocol was in accordance with the ethics committee of the UEL. The patients signed a written informed consent form agreeing with this publication (CAAE number 57452322.2.0000.5231).
Minimal inhibitory concentrations (MIC) of BTU-01 and AmB were determined by the broth microdilution method ([CLSI, 2017]). An inoculum (100 μL) of yeast cells (0.5–2.5 × 10^3 CFU/mL) was added into the wells of a U-bottom 96-well microtiter plate (Techno Plastic Products, Switzerland) containing twofold serial dilutions of BTU-01 (1.95–1000.0 μg/mL) and AmB (0.031–16.0 μg/mL) in RPMI-MOPS. Wells containing medium or medium plus DMSO 1% with or without the fungal cells were used as growth and sterility controls, respectively. Candida parapsilosis ATCC 22019 was used as quality control. […] The results of AmB were interpreted using the epidemiological cut-off values proposed in [Espinel-Ingroff et al. (2012)]. To determine the minimal fungicidal concentration (MFC), 10 μL from the wells without visible growth was transferred onto SD agar ([Espinel-Ingroff et al., 2002]), and incubated at 37°C for 48 h. The MFC was determined as the lowest concentration capable of reducing the CFU counts to zero.
In general terms: Dilution methods test growth across graded concentrations, often in twofold steps.

Data set [2] concerns Cryptococcus neoformans. The data set can be described thus: Time-kill kinetics. It counts as cell-based. To be noted: for difference in CFU counts compared to untreated control cells: BTU-01 MIC, 48 h. As to the method:
For all assays, fungal cells were incubated in RPMI-MOPS (except when specified) supplemented with BTU-01 and AmB alone at MIC and MFC values or combined at the synergistic MIC values. Untreated fungal cells were considered as control. The time-kill assay ([CLSI, 1999]) was performed to analyze the rate of fungal killing in the presence of the compounds alone or combined. The fungal cells (1.0 × 10^3 CFU/mL) were added to the wells of U-bottom 96-wells microtiter plates containing RPMI-MOPS supplemented with BTU-01 and/or AmB and were incubated at 37°C. At determined time points (0, 24, and 48 h), 10 μL was removed from each well and 10-fold serial diluted in saline. A 10-μL aliquot of each dilution was inoculated onto SD agar and the CFU counts were carried out after incubation at 37°C for 48 h. Averaged data were plotted as log10 CFU/mL vs. time (h). The fungicidal effect of the compounds was defined as a 99.9% (3 log10) reduction in CFU/mL of the starting inoculum ([[…] et al., 1998]).

Data set [3] concerns Cryptococcus neoformans biofilm. The data set is described as follows: Antifungal activity on sessile cells, 72-h biofilm, MTT reduction (SMIC80). It counts as cell-based. As to the method:
The capacity of C. neoformans strains to form biofilm was evaluated on flat-bottomed 96-well polystyrene plates (Techno Plastic Products, Switzerland), as described by [Martinez and Casadevall (2006)]. Thus, the biofilms were formed in SD broth statically at 37°C for 24, 48, 72, 96, and 120 h, with an inoculum of 1.0 × 10^7 CFU/mL. After each incubation period, the viability of sessile cells was evaluated using the 3-(4,5-dimethylthiazol-2-yl)-2,5-diphenyltetrazolium bromide (MTT, Merck, Brazil) reduction assay according to the manufacturer’s recommendations. The assays were carried out in quintuplicate and performed on two separate occasions.
To evaluate the antifungal activity of the compounds on sessile cells, biofilms were formed for 72 h, washed with saline, and 200-μL aliquots of RPMI-MOPS containing different concentrations of BTU-01 (31.25–1000.0 μg/mL) and/or AmB (0.007–16.0 μg/mL) were added for determining the SMIC (Sessile Minimal Inhibitory Concentration). Untreated and treated biofilms were incubated at 37°C for further 24 h, and then washed with saline. The biofilm viability was analyzed by the MTT reduction assay as described above. The SMICs of BTU-01 and AmB alone and combined were determined by the lowest concentration capable of inhibiting 80% (SCIM80) of the viability of sessile cells compared to the untreated controls. The checkerboard assays were performed to analyze the effect of the combination with BTU-01 and AmB on 72-h biofilms. The results of the combination were interpreted using the FICI as described previously.
(In general: Tetrazolium dyes change colour on reduction, which living cells bring about.)

Another data set can be described thus: Hemolysis assay. The following applies: human, human erythrocyte suspension (3%); range over tested concentrations; compound alone; 3 h at 37°C; read-out: percentage of hemolysis. It counts as cell-based, human. As to the method: The cytotoxicity of BTU-01 (1.95–1000.0 μg/mL) alone and combined with AmB (0.015–16.0 μg/mL) was evaluated on human erythrocytes. Blood from a healthy donor was collected according to the Declaration of Helsinki principles, defibrinated and an erythrocytes suspension (3%) was prepared in 5% glycosylated saline. A total of 100 μL of the erythrocytes suspension was incubated for 3 h at 37°C in wells of U-bottom 96-well polystyrene plates containing different concentrations of the compounds. Wells without the compounds and with 1% Triton X-100 were used as negative and positive hemolysis controls, respectively. The OD of the supernatant was determined at 550 nm with a microtiter plate reader (Synergy HT, BioTek, USA). The percentage of hemolysis was calculated by comparison with the positive control ([Izumi et al., 2012]).
The concentration of BTU-01 capable of causing 90% of hemolysis/cytotoxicity was used to calculate the selectivity index (SI) using the following equation: SI = CC90/MIC.

Where [4] appears, read: Cryptococcus neoformans, 72 h, C. neoformans 1172; planktonic cells; 72 h; read-out: MIC.
Setting [5] is: Cryptococcus neoformans, 72 h, C. neoformans 90889; planktonic cells; 72 h; read-out: MIC.
[6] abbreviates: Cryptococcus neoformans, 72 h, C. neoformans CN01; planktonic cells; 72 h; read-out: MIC.
Where [7] appears, read: Cryptococcus neoformans, 72 h, C. neoformans CN12; planktonic cells; 72 h; read-out: MIC.
[8] abbreviates: Cryptococcus neoformans, ATCC34872, 72 h, C. neoformans ATCC 34872; planktonic cells; 72 h; read-out: MIC.
Where [9] appears, read: Cryptococcus neoformans, ATCC66031, 72 h, C. neoformans ATCC 66031; planktonic cells; 72 h; read-out: MIC.
Where [10] appears, read: C. neoformans 1172, treated 24 h.
Setting [11] is: C. neoformans ATCC 34872, treated 24 h.

SMILES strings stand for the structures. Converted amounts (≈) assume the structure as drawn. Where two headings read alike, the source gives them in different places. Bounds are passed on as bounds.

The values below come from publication PMC10028264, “Synergistic antifungal interaction of N-(butylcarbamothioyl) benzamide and amphotericin B against Cryptococcus neoformans” (Frontiers in Microbiology, 2023).

As for `C[C@@H]1[C@H](O)[C@@H](C)/C=C/C=C/C=C/C=C/C=C/C=C/C=C/[C@H](O[C@@H]2O[C@H](C)[C@@H](O)[C@H](N)[C@@H]2O)C[C@@H]2O[C@](O)(C[C@@H](O)C[C@@H](O)[C@H](O)CC[C@@H](O)C[C@@H](O)CC(=O)O[C@H]1C)C[C@H](O)[C@H]2C(=O)O` [Amphotericin B, amphotericin B], the minimum inhibitory concentration (MIC) (as a rule, the lowest concentration found to suppress growth) amounted to 0.25 µg/mL (≈ 0.271 µM) in the data set on Cryptococcus neoformans [1] (C. neoformans 1172; planktonic cells; 72 h; listed as AmB); 0.25 µg/mL (≈ 0.271 µM) in the data set on Cryptococcus neoformans [1] (C. neoformans ATCC 34872; planktonic cells; 72 h; listed as AmB); 0.25 µg/mL (≈ 0.271 µM) in the data set on Cryptococcus neoformans [1] (setting [4]); 0.25 µg/mL (≈ 0.271 µM) with Cryptococcus neoformans [1] (setting [5]); 0.125 µg/mL (≈ 0.135 µM) with Cryptococcus neoformans [1] (setting [6]); 0.125 µg/mL (≈ 0.135 µM) in the data set on Cryptococcus neoformans [1] (setting [7]). In addition, the minimum inhibitory concentration (MIC) was 0.25 µg/mL (≈ 0.271 µM) in the data set on Cryptococcus neoformans [1] (setting [8]) and 0.125 µg/mL (≈ 0.135 µM) in the data set on Cryptococcus neoformans [1] (setting [9]). The MFC against Cryptococcus neoformans [1] (C. neoformans 90889; planktonic cells; 72 h) amounted to 0.5 µg/mL (≈ 0.541 µM); with Cryptococcus neoformans [1] (C. neoformans CN01; planktonic cells; 72 h), 0.5 µg/mL (≈ 0.541 µM); with Cryptococcus neoformans [1] (C. neoformans CN12; planktonic cells; 72 h), 0.5 µg/mL (≈ 0.541 µM); in the data set with Cryptococcus neoformans [1] (Cryptococcus neoformans, ATCC34872; C. neoformans ATCC 34872; planktonic cells; 72 h; read-out: MFC) it was 0.5 µg/mL (≈ 0.541 µM); with Cryptococcus neoformans [1] (Cryptococcus neoformans, ATCC66031; C. neoformans ATCC 66031; planktonic cells; 72 h; read-out: MFC) it was 0.5 µg/mL (≈ 0.541 µM); in the data set on Cryptococcus neoformans [1] (Cryptococcus neoformans; C. neoformans 1172; planktonic cells; 72 h; read-out: MFC), 0.5 µg/mL (≈ 0.541 µM). Further, in the data set on Cryptococcus neoformans [1] (epidemiological cut-off values of Espinel-Ingroff et al., 2012; all strains), the “susceptibility of the strains to the antifungal” value was “susceptible”. In addition, in the data set with Cryptococcus neoformans [1] (planktonic cells; all six strains), the “MFC, range over all C. neoformans strains” value was 0.5 µg/mL (≈ 0.541 µM). In addition, the CFU counts result with Cryptococcus neoformans [2] (AmB MFC, after 24 h-incubation) was “no CFU counts were detected”. In addition, the SMIC80 in data set [3] (setting [10]) and in data set [3] (setting [11]) was 1.0 µg/mL throughout. For the same compound, the hemolysis at 3 h in the data set “Hemolysis assay” fell in the range of 0.52 to 1.34%.
Turning to `CCCCNC(=S)NC(=O)c1ccccc1` [BTU-01, N-(butylcarbamothioyl) benzamide], the MFC is 125 µg/mL (≈ 529 µM) in the data set on Cryptococcus neoformans [1] (Cryptococcus neoformans, 72 h, C. neoformans 1172; planktonic cells; 72 h; read-out: MFC); 250 µg/mL (≈ 1060 µM) in the data set on Cryptococcus neoformans [1] (Cryptococcus neoformans, 72 h, C. neoformans 90889; planktonic cells; 72 h; read-out: MFC); 500 µg/mL (≈ 2120 µM) in the data set with Cryptococcus neoformans [1] (Cryptococcus neoformans, 72 h, C. neoformans CN01; planktonic cells; 72 h; read-out: MFC); > 1000 µg/mL in the data set with Cryptococcus neoformans [1] (Cryptococcus neoformans, 72 h, C. neoformans CN12; planktonic cells; 72 h; read-out: MFC); 125 µg/mL (≈ 529 µM) in the data set on Cryptococcus neoformans [1] (Cryptococcus neoformans, ATCC34872, 72 h, C. neoformans ATCC 34872; planktonic cells; 72 h; read-out: MFC); 125 µg/mL (≈ 529 µM) in the data set with Cryptococcus neoformans [1] (Cryptococcus neoformans, ATCC66031, 72 h, C. neoformans ATCC 66031; planktonic cells; 72 h; read-out: MFC). The minimum inhibitory concentration (MIC) was found to be 62.5 µg/mL (≈ 264 µM) in the data set on Cryptococcus neoformans [1] (setting [4]); 62.5 µg/mL (≈ 264 µM) in the data set on Cryptococcus neoformans [1] (setting [5]); 62.5 µg/mL (≈ 264 µM) in the data set with Cryptococcus neoformans [1] (setting [6]); 31.2 µg/mL (≈ 132 µM) in the data set with Cryptococcus neoformans [1] (setting [7]); 62.5 µg/mL (≈ 264 µM) in the data set with Cryptococcus neoformans [1] (setting [8]); 62.5 µg/mL (≈ 264 µM) in the data set with Cryptococcus neoformans [1] (setting [9]). For the same compound, the “nature of the antifungal effect” value in the data set with Cryptococcus neoformans [1] (from MIC and MFC; all strains) is recorded as “fungistatic effect”. For the same compound, the “difference in CFU counts compared to untreated control cells” value in the data set on Cryptococcus neoformans [2] (1172) amounted to 3 log10; with Cryptococcus neoformans [2] (ATCC 34872), 2 log10. Besides, the “reduction of CFU compared to untreated control” value in the data set on Cryptococcus neoformans [2] (treatment with MFC, 1172 isolate) was 5 log CFU. Further, the CFU counts entry in the data set on Cryptococcus neoformans [2] (treatment with MFC, ATCC 34872) is recorded as “zero CFU counts”. Moreover, the SMIC80 is > 1000.0 µg/mL in data set [3] (setting [10]) and 125.0 µg/mL in data set [3] (setting [11]). For the same compound, the hemolysis at 3 h in “Hemolysis assay” lay in the range of 0 to 3.18%.
